Measurements published in ChEMBL document CHEMBL6109153, “Development of Membrane-Targeting Osthole Derivatives Containing Pyridinium Quaternary Ammonium Moieties with Potent Anti-Methicillin-Resistant Staphylococcus aureus Properties” (J Med Chem, 2025).

What was measured:
Staphylococcus aureus [1] = assay: Induction of resistance development in Staphylococcus aureus ATCC 29213 assessed as fold change in MIC at 0.5 times MIC measured after 18 passages by broth microdilution method; assay type: functional
Staphylococcus aureus [2] = assay: Antibacterial activity against methicillin-resistant Staphylococcus aureus M14 incubated for 16 to 20 hrs by broth microdilution method; assay type: functional; conditions: time 16-20 hrs
Staphylococcus aureus [3] = assay: Antibacterial activity against methicillin-resistant Staphylococcus aureus M11 incubated for 16 to 20 hrs by broth microdilution method; assay type: functional; conditions: time 16-20 hrs
Staphylococcus aureus [4] = assay: Antibacterial activity against methicillin-resistant Staphylococcus aureus M20 incubated for 16 to 20 hrs by broth microdilution method; assay type: functional; conditions: time 16-20 hrs
Staphylococcus aureus [5] = assay: Antibacterial activity against methicillin-resistant Staphylococcus aureus M16 incubated for 16 to 20 hrs by broth microdilution method; assay type: functional; conditions: time 16-20 hrs
Staphylococcus aureus [6] = assay: Antibacterial activity against methicillin-resistant Staphylococcus aureus M23 incubated for 16 to 20 hrs by broth microdilution method; assay type: functional; conditions: time 16-20 hrs
Staphylococcus aureus [7] = assay: Antibacterial activity against methicillin-resistant Staphylococcus aureus M17 incubated for 16 to 20 hrs by broth microdilution method; assay type: functional; conditions: time 16-20 hrs
Staphylococcus aureus [8] = assay: Antibacterial activity against methicillin-resistant Staphylococcus aureus M22 incubated for 16 to 20 hrs by broth microdilution method; assay type: functional; conditions: time 16-20 hrs
Staphylococcus aureus [9] = assay: Antibacterial activity against methicillin-resistant Staphylococcus aureus M21 incubated for 16 to 20 hrs by broth microdilution method; assay type: functional; conditions: time 16-20 hrs
Staphylococcus aureus [10] = assay: Antibacterial activity against methicillin-resistant Staphylococcus aureus M13 incubated for 16 to 20 hrs by broth microdilution method; assay type: functional; conditions: time 16-20 hrs
Escherichia coli = assay: Antibacterial activity against Escherichia coli ATCC 25922 incubated for 16 to 20 hrs by broth microdilution method; assay type: functional; conditions: time 16-20 hrs
Staphylococcus aureus [11] = assay: Antibacterial activity against Staphylococcus aureus ATCC 29213 incubated for 16 to 20 hrs by broth microdilution method; assay type: functional; conditions: time 16-20 hrs
[12] = Hemolytic activity against sheep erythrocytes; assay type: toxicity, cell-based, Ovis aries, Erythrocyte
Staphylococcus aureus [13] = assay: Antibacterial activity against methicillin-resistant Staphylococcus aureus M12 incubated for 16 to 20 hrs by broth microdilution method; assay type: functional; conditions: time 16-20 hrs
Staphylococcus aureus [14] = assay: Induction of cell permeability in methicillin-resistant Staphylococcus aureus M11 assessed as fold increase in fluorescence intensity at 32 times MIC by SYTOX Green dye based analysis relative to control; assay type: functional

Row | SMILES | fold change (FC) (Staphylococcus aureus [1]) | MIC (Staphylococcus aureus [2]) | MIC (Staphylococcus aureus [3]) | MIC (Staphylococcus aureus [4]) | MIC (Staphylococcus aureus [5]) | MIC (Staphylococcus aureus [6]) | MIC (Staphylococcus aureus [7]) | MIC (Staphylococcus aureus [8]) | MIC (Staphylococcus aureus [9]) | MIC (Staphylococcus aureus [10]) | MIC (Escherichia coli) | MIC (Staphylococcus aureus [11]) | HC50 [12] | MIC (Staphylococcus aureus [13]) | fold change (FC) (Staphylococcus aureus [14])
1 | CCn1cc(C(=O)O)c(=O)c2cc(F)c(N3CCNCC3)cc21 [NORFLOXACIN] | 128 |  |  |  |  |  |  |  |  |  |  |  |  |  | 
2 | CCCCNC(=O)C[n+]1ccc(SCCCOc2ccc3ccc(=O)oc3c2CC=C(C)C)cc1.[Br-] |  | 4 µg/mL | 4 µg/mL | 4 µg/mL | 4 µg/mL | 8 µg/mL | 8 µg/mL | 4 µg/mL | 4 µg/mL | 8 µg/mL | > 128 µg/mL | 2 µg/mL | > 160 µg/mL | 8 µg/mL | 
3 | CC(C)=CCc1c(OCCCCSc2cc[n+](CC(=O)N3CCOCC3)cc2)ccc2ccc(=O)oc12.[Br-] |  | 32 µg/mL | 32 µg/mL | 32 µg/mL | 32 µg/mL | 32 µg/mL | 32 µg/mL | 32 µg/mL | 32 µg/mL | 64 µg/mL | > 128 µg/mL | 32 µg/mL | > 160 µg/mL | 64 µg/mL | 
4 | CC(C)=CCc1c(OCCCCCSc2cc[n+](CC(=O)N3CCOCC3)cc2)ccc2ccc(=O)oc12.[Br-] |  | 16 µg/mL | 16 µg/mL | 16 µg/mL | 16 µg/mL | 32 µg/mL | 32 µg/mL | 32 µg/mL | 32 µg/mL | 64 µg/mL | > 128 µg/mL | 32 µg/mL | > 160 µg/mL | 32 µg/mL | 
5 | CC(C)=CCc1c(OCCCSc2cc[n+](CC(=O)N(CC(C)C)CC(C)C)cc2)ccc2ccc(=O)oc12.[Br-] |  | 2 µg/mL | 1 µg/mL | 2 µg/mL | 2 µg/mL | 2 µg/mL | 4 µg/mL | 2 µg/mL | 2 µg/mL | 4 µg/mL | > 128 µg/mL | 2 µg/mL | > 160 µg/mL | 4 µg/mL | 
6 | CCCCCCNC(=O)C[n+]1ccc(SCCCCOc2ccc3ccc(=O)oc3c2CC=C(C)C)cc1.[Br-] |  | 1 µg/mL | 1 µg/mL | 1 µg/mL | 2 µg/mL | 2 µg/mL | 1 µg/mL | 2 µg/mL | 2 µg/mL | 2 µg/mL | 32 µg/mL | 1 µg/mL | > 160 µg/mL | 2 µg/mL | 
7 | CCCNC(=O)C[n+]1ccc(SCCCCCOc2ccc3ccc(=O)oc3c2CC=C(C)C)cc1.[Br-] |  | 2 µg/mL | 2 µg/mL | 2 µg/mL | 2 µg/mL | 4 µg/mL | 8 µg/mL | 8 µg/mL | 8 µg/mL | 8 µg/mL | > 128 µg/mL | 2 µg/mL | 190 µg/mL | 8 µg/mL | 
8 | CCCCCNC(=O)C[n+]1ccc(SCCCCOc2ccc3ccc(=O)oc3c2CC=C(C)C)cc1.[Br-] |  | 1 µg/mL | 2 µg/mL | 1 µg/mL | 2 µg/mL | 1 µg/mL | 2 µg/mL | 4 µg/mL | 4 µg/mL | 4 µg/mL | > 128 µg/mL | 4 µg/mL | > 160 µg/mL | 4 µg/mL | 
9 | CCCNC(=O)C[n+]1ccc(SCCCCOc2ccc3ccc(=O)oc3c2CC=C(C)C)cc1.[Br-] |  | 8 µg/mL | 4 µg/mL | 8 µg/mL | 8 µg/mL | 8 µg/mL | 8 µg/mL | 2 µg/mL | 2 µg/mL | 16 µg/mL | > 128 µg/mL | 16 µg/mL | > 160 µg/mL | 16 µg/mL | 
10 | CC[C@H](C)[C@H](NC(=O)CN)C(=O)NCC(=O)N[C@@H](C)C(=O)N[C@H](C(=O)N[C@@H](CC(C)C)C(=O)N[C@@H](CCCCN)C(=O)N[C@H](C(=O)N[C@@H](CC(C)C)C(=O)N[C@H](C(=O)N[C@H](C(=O)NCC(=O)N[C@@H](CC(C)C)C(=O)N1CCC[C@H]1C(=O)N[C@@H](C)C(=O)N[C@@H](CC(C)C)C(=O)N[C@H](C(=O)N[C@@H](CO)C(=O)N[C@@H](Cc1c[nH]c2ccccc12)C(=O)N[C@H](C(=O)N[C@@H](CCCCN)C(=O)N[C@@H](CCCNC(=N)N)C(=O)N[C@@H](CCCCN)C(=O)N[C@@H](CCCNC(=N)N)C(=O)N[C@@H](CCC(N)=O)C(=O)N[C@@H](CCC(N)=O)C(N)=O)[C@@H](C)CC)[C@@H](C)CC)[C@@H](C)O)[C@@H](C)O)C(C)C)C(C)C [MELITTIN] |  |  |  |  |  |  |  |  |  |  |  |  |  |  | ~8
11 | CCCN(CCC)C(=O)C[n+]1ccc(SCCCOc2ccc3ccc(=O)oc3c2CC=C(C)C)cc1.[Br-] |  | 8 µg/mL | 4 µg/mL | 4 µg/mL | 8 µg/mL | 8 µg/mL | 8 µg/mL | 8 µg/mL | 8 µg/mL | 16 µg/mL | 128 µg/mL | 4 µg/mL | > 160 µg/mL | 16 µg/mL | 
12 | CC(C)=CCc1c(OCCCCSc2cc[n+](CC(=O)N(C)c3ccccc3)cc2)ccc2ccc(=O)oc12.[Br-] |  | 4 µg/mL | 2 µg/mL | 2 µg/mL | 4 µg/mL | 16 µg/mL | 16 µg/mL | 8 µg/mL | 8 µg/mL | 8 µg/mL | > 128 µg/mL | 4 µg/mL | > 160 µg/mL | 8 µg/mL | 
13 | CCCN(CCC)C(=O)C[n+]1ccc(SCCCCCOc2ccc3ccc(=O)oc3c2CC=C(C)C)cc1.[Br-] |  | 1 µg/mL | 1 µg/mL | 1 µg/mL | 1 µg/mL | 2 µg/mL | 2 µg/mL | 1 µg/mL | 1 µg/mL | 4 µg/mL | > 128 µg/mL | 1 µg/mL | > 160 µg/mL | 2 µg/mL | 
14 | CCCCNC(=O)C[n+]1ccc(SCCCCCOc2ccc3ccc(=O)oc3c2CC=C(C)C)cc1.[Br-] |  | 1 µg/mL | 1 µg/mL | 1 µg/mL | 2 µg/mL | 2 µg/mL | 2 µg/mL | 1 µg/mL | 1 µg/mL | 2 µg/mL | > 128 µg/mL | 2 µg/mL | > 160 µg/mL | 2 µg/mL | 
15 | CCCCCCNC(=O)C[n+]1ccc(SCCCCCOc2ccc3ccc(=O)oc3c2CC=C(C)C)cc1.[Br-] |  | 2 µg/mL | 2 µg/mL | 4 µg/mL | 2 µg/mL | 2 µg/mL | 2 µg/mL | 2 µg/mL | 2 µg/mL | 2 µg/mL | > 128 µg/mL | 64 µg/mL | > 160 µg/mL | 2 µg/mL | 
16 | CCCCN(CCCC)C(=O)C[n+]1ccc(SCCCOc2ccc3ccc(=O)oc3c2CC=C(C)C)cc1.[Br-] |  | 1 µg/mL | 1 µg/mL | 1 µg/mL | 2 µg/mL | 2 µg/mL | 1 µg/mL | 2 µg/mL | 2 µg/mL | 4 µg/mL | > 128 µg/mL | 1 µg/mL | > 160 µg/mL | 4 µg/mL | 
